Data from PubChem BioAssay (NCI).
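96-well plates; 48 h exposure; 5 concentrations. Endpoints by linear interpolation between flanking doses. Not reached: highest tested concentration assigned. The concentration for full growth arrest is given as TGI.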

The compounds below were run on A498 renal (assay: inhibition of tumour cell growth, NCI panel, 48 h).
`O=C(NCCCNCCCCNCCCNC(=O)C(F)(F)F)C(F)(F)F` showed a TGI of over 100 µM.
Compound `O=C(O)c1cc2ccccc2c(S(=O)(=O)O)c1O` has a TGI of over 100 µM.
`COC(=O)c1sc2ncc3c(c2c1N)CC(C)CC3` (stereo not drawn) was tested, and the TGI was over 100 µM.
In the case of `CCOC(=O)c1[nH]c2nc(SC)nc(NC)c2c1N`, the TGI is reported as over 100 µM.
With `Cc1cccc(NC(Nc2cccc(C)c2)=C(C(Cl)=C(Cl)Cl)[N+](=O)[O-])c1` the TGI was over 86 µM.
`CC1=CCC[C@H]2[C@](C)(CC3=CC(=O)C4SCCSC4C3=O)[C@@H](C)CC[C@]12C` (stereo partly drawn) showed a TGI of 31.2 µM.
`COC(=O)C1=C(C(=O)OC)C2(C)CCC(=O)C1O2` (stereo not drawn) was tested, and the TGI was over 10 µM.
`Nc1n[nH]c2ccccc12` gave a TGI of over 100 µM.

These compounds were tested on NCI/ADR-RES ovarian (assay: inhibition of tumour cell growth, NCI panel, 48 h).
`CC(O)(C(=O)N(O)c1ccc(Cl)cc1)c1ccc(Cl)cc1` (stereo not drawn) gave a TGI of 86.6 µM.
In the case of `CC1(C)[C@@H]2C[C@H]1c1cnc(-c3ccccn3)cc1[C@H]2C(O)[C@@H]1c2cc(-c3ccccn3)ncc2[C@H]2C[C@@H]1C2(C)C` (stereo partly drawn), the TGI is reported as 1.41 µM.
`COc1ccc(N2C(=O)C3c4[nH]c5ccccc5c4C4C(C)CCCC4C3C2=O)cc1` (stereo not drawn) showed a TGI of over 100 µM.
`Brc1ccc2c(c1)-c1nc3c(cc1CC2)CCc1ccc(Br)cc1-3` gave a TGI of over 100 µM.
`OC(c1ccco1)C(F)(F)c1nc2ccccc2o1` (stereo not drawn) was tested, and the TGI was over 100 µM.
`CCN(C(=O)N[C@H](C(=O)N[C@@H](C)C(=O)OC)C(C)C)c1ccccc1` was tested, and the TGI was over 100 µM.
Compound `CCOC(=O)c1ccc(C(=O)/C(C(=O)OC(C)(C)C)=C2\CCCN2C)n1C` has a TGI of over 100 µM.
`Cc1cc2c(cc1Cl)SC(NNc1cnc3ccccc3n1)=NS2(=O)=O` gave a TGI of over 100 µM.
`O=[N+]([O-])c1ccc2nc3c(nc2c1)-c1c2ccccc2cc2cccc-3c12` showed a TGI of 28.3 µM.
For `COc1ccc(CN2C(=O)C(=O)N(C)C2=O)c2ccccc12`, the TGI was over 10 µM.
For `OCC1OC(O[C@H]2CN3[C@H](O)[C@@H](O)[C@H](O)[C@H]3C2O)C(O)C(O)C1O` (stereo partly drawn), the TGI was over 100 µM.
Compound `O=S1(=O)c2ccccc2NC(=S)N1c1ccccc1` has a TGI of over 100 µM.
`COC(=O)C(CCSC)NC(=O)CSc1nnc(COc2ccc(Cl)cc2)n1-c1ccccc1` (stereo not drawn) gave a TGI of 39.2 µM.
In the case of `COc1cc(/C=C/c2cc(=O)cc(/C=C/c3ccc(O)c(OC)c3)o2)ccc1O`, the TGI is reported as over 100 µM.
With `COn1cc(CO)c2ccccc21` the TGI was over 100 µM.
With `NNC(=O)c1cccc2c1Oc1ccccc1S2` the TGI was over 100 µM.
With `O=C(/C=C1\C[C@H]2C=Nc3ccccc3C(=O)N2C1)NCCCCCNC(=O)/C=C1\C[C@H]2C=Nc3ccccc3C(=O)N2C1` the TGI was 55.9 µM.
In the case of `COc1cc2c(cc1O)CC[n+]1cc3c(OC)c(OC)ccc3cc1-2`, the TGI is reported as over 100 µM.
With `NC(=S)N=Nc1c(O)cc(Nc2ccc(Cl)cc2Cl)c2ccccc12` the TGI was over 100 µM.
For `CC[P+](C#Cc1ccccc1)(c1ccccc1)c1ccccc1`, the TGI was over 100 µM.
Compound `Cc1ccc(C(=O)c2[nH]c(Nc3cc(C)ccn3)c(C(=S)Nc3ccccc3)c2N)cc1` has a TGI of over 100 µM.
Work on `Clc1cccc(C2ON=C(c3ccccc3)N2C23CC4CC(CC(C4)C2)C3)c1Cl` (stereo not drawn) yielded a TGI of over 10 µM.
`CNc1ccc2c(c1)Cc1ccccc1-2` showed a TGI of over 100 µM.
`CCN(CC(=O)O)CC(=O)O` gave a TGI of over 100 µM.
In the case of `Cc1cc(C)nc(NS(=O)(=O)c2ccc(Nc3c4ccccc4nc4c(C(=O)NCCO)cccc34)cc2)n1`, the TGI is reported as over 100 µM.
For `O=C1NN=C(c2c[nH]c3ccccc23)CC1NCc1ccccc1` (stereo not drawn), the TGI was over 100 µM.
Compound `O=C(NCCCNCCCCNCCCNC(=O)C(F)(F)F)C(F)(F)F` has a TGI of over 100 µM.
`O=C(O)c1cc2ccccc2c(S(=O)(=O)O)c1O` gave a TGI of over 100 µM.
Compound `COC(=O)c1sc2ncc3c(c2c1N)CC(C)CC3` (stereo not drawn) has a TGI of over 100 µM.
In the case of `CCOC(=O)c1[nH]c2nc(SC)nc(NC)c2c1N`, the TGI is reported as over 100 µM.
In the case of `Cc1cccc(NC(Nc2cccc(C)c2)=C(C(Cl)=C(Cl)Cl)[N+](=O)[O-])c1`, the TGI is reported as 35.4 µM.
`CC1=CCC[C@H]2[C@](C)(CC3=CC(=O)C4SCCSC4C3=O)[C@@H](C)CC[C@]12C` (stereo partly drawn) showed a TGI of 47.2 µM.
Work on `COC(=O)C1=C(C(=O)OC)C2(C)CCC(=O)C1O2` (stereo not drawn) yielded a TGI of over 10 µM.
`Nc1n[nH]c2ccccc12` gave a TGI of over 100 µM.

What follows are compounds tested on CAKI-1 renal (assay: inhibition of tumour cell growth, NCI panel, 48 h).
`CC(O)(C(=O)N(O)c1ccc(Cl)cc1)c1ccc(Cl)cc1` (stereo not drawn) showed a TGI of 83.6 µM.
`CC1(C)[C@@H]2C[C@H]1c1cnc(-c3ccccn3)cc1[C@H]2C(O)[C@@H]1c2cc(-c3ccccn3)ncc2[C@H]2C[C@@H]1C2(C)C` (stereo partly drawn) showed a TGI of 2.43 µM.
Compound `COc1ccc(N2C(=O)C3c4[nH]c5ccccc5c4C4C(C)CCCC4C3C2=O)cc1` (stereo not drawn) has a TGI of over 100 µM.
`Brc1ccc2c(c1)-c1nc3c(cc1CC2)CCc1ccc(Br)cc1-3` showed a TGI of over 100 µM.
`OC(c1ccco1)C(F)(F)c1nc2ccccc2o1` (stereo not drawn) gave a TGI of over 100 µM.
`CCN(C(=O)N[C@H](C(=O)N[C@@H](C)C(=O)OC)C(C)C)c1ccccc1` showed a TGI of over 100 µM.
In the case of `CCOC(=O)c1ccc(C(=O)/C(C(=O)OC(C)(C)C)=C2\CCCN2C)n1C`, the TGI is reported as over 100 µM.
Compound `Cc1cc2c(cc1Cl)SC(NNc1cnc3ccccc3n1)=NS2(=O)=O` has a TGI of over 100 µM.
`O=[N+]([O-])c1ccc2nc3c(nc2c1)-c1c2ccccc2cc2cccc-3c12` gave a TGI of over 40.7 µM.
Compound `COc1ccc(CN2C(=O)C(=O)N(C)C2=O)c2ccccc12` has a TGI of over 10 µM.
`OCC1OC(O[C@H]2CN3[C@H](O)[C@@H](O)[C@H](O)[C@H]3C2O)C(O)C(O)C1O` (stereo partly drawn) showed a TGI of over 100 µM.
For `O=S1(=O)c2ccccc2NC(=S)N1c1ccccc1`, the TGI was over 100 µM.
Compound `COC(=O)C(CCSC)NC(=O)CSc1nnc(COc2ccc(Cl)cc2)n1-c1ccccc1` (stereo not drawn) has a TGI of 35.9 µM.
`COc1cc(/C=C/c2cc(=O)cc(/C=C/c3ccc(O)c(OC)c3)o2)ccc1O` gave a TGI of over 100 µM.
In the case of `COn1cc(CO)c2ccccc21`, the TGI is reported as over 54.8 µM.
With `NNC(=O)c1cccc2c1Oc1ccccc1S2` the TGI was over 100 µM.
Compound `O=C(/C=C1\C[C@H]2C=Nc3ccccc3C(=O)N2C1)NCCCCCNC(=O)/C=C1\C[C@H]2C=Nc3ccccc3C(=O)N2C1` has a TGI of 6.38 µM.
With `COc1cc2c(cc1O)CC[n+]1cc3c(OC)c(OC)ccc3cc1-2` the TGI was over 100 µM.
Work on `NC(=S)N=Nc1c(O)cc(Nc2ccc(Cl)cc2Cl)c2ccccc12` yielded a TGI of 38.6 µM.
Work on `CC[P+](C#Cc1ccccc1)(c1ccccc1)c1ccccc1` yielded a TGI of 32.8 µM.
Work on `Cc1ccc(C(=O)c2[nH]c(Nc3cc(C)ccn3)c(C(=S)Nc3ccccc3)c2N)cc1` yielded a TGI of over 100 µM.
`Clc1cccc(C2ON=C(c3ccccc3)N2C23CC4CC(CC(C4)C2)C3)c1Cl` (stereo not drawn) gave a TGI of over 10 µM.
Compound `CNc1ccc2c(c1)Cc1ccccc1-2` has a TGI of 90.7 µM.
`CCN(CC(=O)O)CC(=O)O` was tested, and the TGI was over 100 µM.
Work on `Cc1cc(C)nc(NS(=O)(=O)c2ccc(Nc3c4ccccc4nc4c(C(=O)NCCO)cccc34)cc2)n1` yielded a TGI of 52.7 µM.
`O=C1NN=C(c2c[nH]c3ccccc23)CC1NCc1ccccc1` (stereo not drawn) was tested, and the TGI was over 100 µM.
With `O=C(NCCCNCCCCNCCCNC(=O)C(F)(F)F)C(F)(F)F` the TGI was 40.4 µM.
`O=C(O)c1cc2ccccc2c(S(=O)(=O)O)c1O` gave a TGI of over 100 µM.
Work on `COC(=O)c1sc2ncc3c(c2c1N)CC(C)CC3` (stereo not drawn) yielded a TGI of over 100 µM.
Compound `CCOC(=O)c1[nH]c2nc(SC)nc(NC)c2c1N` has a TGI of over 100 µM.
For `Cc1cccc(NC(Nc2cccc(C)c2)=C(C(Cl)=C(Cl)Cl)[N+](=O)[O-])c1`, the TGI was 35.6 µM.
`CC1=CCC[C@H]2[C@](C)(CC3=CC(=O)C4SCCSC4C3=O)[C@@H](C)CC[C@]12C` (stereo partly drawn) was tested, and the TGI was 99.2 µM.
`COC(=O)C1=C(C(=O)OC)C2(C)CCC(=O)C1O2` (stereo not drawn) was tested, and the TGI was over 10 µM.
Work on `Nc1n[nH]c2ccccc12` yielded a TGI of over 100 µM.

Each compound was assayed on IGROV1 ovarian (assay: inhibition of tumour cell growth, NCI panel, 48 h).
`CC(O)(C(=O)N(O)c1ccc(Cl)cc1)c1ccc(Cl)cc1` (stereo not drawn) showed a TGI of over 100 µM.
`CC1(C)[C@@H]2C[C@H]1c1cnc(-c3ccccn3)cc1[C@H]2C(O)[C@@H]1c2cc(-c3ccccn3)ncc2[C@H]2C[C@@H]1C2(C)C` (stereo partly drawn) was tested, and the TGI was 6.98 µM.
`COc1ccc(N2C(=O)C3c4[nH]c5ccccc5c4C4C(C)CCCC4C3C2=O)cc1` (stereo not drawn) gave a TGI of over 100 µM.
With `Brc1ccc2c(c1)-c1nc3c(cc1CC2)CCc1ccc(Br)cc1-3` the TGI was over 100 µM.
Compound `OC(c1ccco1)C(F)(F)c1nc2ccccc2o1` (stereo not drawn) has a TGI of over 100 µM.
In the case of `CCN(C(=O)N[C@H](C(=O)N[C@@H](C)C(=O)OC)C(C)C)c1ccccc1`, the TGI is reported as over 100 µM.
`CCOC(=O)c1ccc(C(=O)/C(C(=O)OC(C)(C)C)=C2\CCCN2C)n1C` was tested, and the TGI was over 100 µM.
In the case of `Cc1cc2c(cc1Cl)SC(NNc1cnc3ccccc3n1)=NS2(=O)=O`, the TGI is reported as over 100 µM.
In the case of `O=[N+]([O-])c1ccc2nc3c(nc2c1)-c1c2ccccc2cc2cccc-3c12`, the TGI is reported as over 28.4 µM.
Compound `COc1ccc(CN2C(=O)C(=O)N(C)C2=O)c2ccccc12` has a TGI of over 10 µM.
`OCC1OC(O[C@H]2CN3[C@H](O)[C@@H](O)[C@H](O)[C@H]3C2O)C(O)C(O)C1O` (stereo partly drawn) was tested, and the TGI was over 100 µM.
Compound `O=S1(=O)c2ccccc2NC(=S)N1c1ccccc1` has a TGI of over 100 µM.
Work on `COC(=O)C(CCSC)NC(=O)CSc1nnc(COc2ccc(Cl)cc2)n1-c1ccccc1` (stereo not drawn) yielded a TGI of 31.1 µM.
Compound `COc1cc(/C=C/c2cc(=O)cc(/C=C/c3ccc(O)c(OC)c3)o2)ccc1O` has a TGI of over 100 µM.
For `COn1cc(CO)c2ccccc21`, the TGI was over 100 µM.
`NNC(=O)c1cccc2c1Oc1ccccc1S2` was tested, and the TGI was over 100 µM.
Compound `O=C(/C=C1\C[C@H]2C=Nc3ccccc3C(=O)N2C1)NCCCCCNC(=O)/C=C1\C[C@H]2C=Nc3ccccc3C(=O)N2C1` has a TGI of 23.1 µM.
